Laboratory results taken from US20070082880A1 (priority 2005, published 2007).

Target: T1, human PKCθ full length enzyme (Homo sapiens, UniProt Q04759)
T1 construct: human PKCθ full length enzyme (Panvera Catalog No. P2996); purchased Panvera P2996
Test: PKCθ IMAP Assay
Assay type: biochemical
Settings: average value when one or more samples were tested; ATP 6 uM, PKCθ 1 nM
How it was run: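 IMAP fluorescence polarization after 20 min with binding beads measured phosphorylation of 100 nM 5FAM-peptide. Reactions held 1 nM full-length human PKCθ, 6 uM ATP, 5% DMSO and DTT-containing buffer, 25 min at room temperature. Compounds tested as 2:1 serial dilutions; controls lacked ATP or enzyme.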

T1 sequence (Q04759 whole entry): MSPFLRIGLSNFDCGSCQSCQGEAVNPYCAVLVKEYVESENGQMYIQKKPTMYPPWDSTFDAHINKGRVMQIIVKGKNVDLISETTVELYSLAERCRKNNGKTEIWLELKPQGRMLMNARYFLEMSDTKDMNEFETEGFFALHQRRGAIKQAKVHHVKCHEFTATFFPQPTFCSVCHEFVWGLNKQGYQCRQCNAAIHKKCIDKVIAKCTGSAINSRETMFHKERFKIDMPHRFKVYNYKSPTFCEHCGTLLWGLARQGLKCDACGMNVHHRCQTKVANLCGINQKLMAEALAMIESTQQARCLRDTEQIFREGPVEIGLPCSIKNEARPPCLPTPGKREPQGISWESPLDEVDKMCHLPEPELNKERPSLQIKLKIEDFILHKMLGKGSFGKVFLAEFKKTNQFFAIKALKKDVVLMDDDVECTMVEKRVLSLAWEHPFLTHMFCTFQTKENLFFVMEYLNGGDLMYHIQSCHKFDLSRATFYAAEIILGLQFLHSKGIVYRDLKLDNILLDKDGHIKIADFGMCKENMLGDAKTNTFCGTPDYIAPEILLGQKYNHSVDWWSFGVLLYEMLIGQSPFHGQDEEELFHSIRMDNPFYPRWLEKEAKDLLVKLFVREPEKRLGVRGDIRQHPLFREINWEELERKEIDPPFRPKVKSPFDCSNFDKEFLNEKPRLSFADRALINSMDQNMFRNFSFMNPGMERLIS

Row | SMILES | IC50
1 | COC(=O)Nc1ccc(-c2cc3c(Nc4ccc5[nH]ccc5c4C)c(C#N)cnc3s2)cc1 [Compound 333, methyl (4-{5-cyano-4-[(4-methyl-1H-indol-5-yl)amino]thieno[2,3-b]pyridin-2-yl}phenyl)carbamate] | 616 nM
2 | CCCCNC(=O)Nc1ccc(-c2cc3c(Nc4ccc5[nH]ccc5c4)c(C#N)cnc3s2)cc1 [Compound 334, N-butyl-N′-{4-[5-cyano-4-(1H-indol-5-ylamino)thieno[2,3-b]pyridin-2-yl]phenyl}urea] | > 12500 nM
3 | CN(C)CCNC(=O)c1cccc(-c2cc3c(Nc4ccc5[nH]ccc5c4)c(C#N)cnc3s2)c1 [Compound 335, 3-[5-cyano-4-(1H-indol-5-ylamino)thieno[2,3-b]pyridin-2-yl]-N-[2-(dimethylamino)ethyl]benzamide] | 124 nM
4 | N#Cc1cnc2sc(-c3cscc3C=O)cc2c1Nc1ccc2[nH]ccc2c1 [Compound 336, 2-(4-formyl-3-thienyl)-4-(1H-indol-5-ylamino)thieno[2,3-b]pyridine-5-carbonitrile] | 51 nM
5 | COc1ccc(-c2cc3c(Nc4ccc5[nH]ccc5c4)c(C#N)cnc3s2)cc1C=O [Compound 337, 2-(3-formyl-4-methoxyphenyl)-4-(1H-indol-5-ylamino)thieno[2,3-b]pyridine-5-carbonitrile] | 136 nM
6 | COc1ccc(C=O)cc1-c1cc2c(Nc3ccc4[nH]ccc4c3C)c(C#N)cnc2s1 [Compound 338, 2-(5-formyl-2-methoxyphenyl)-4-[(4-methyl-1H-indol-5-yl)amino]thieno[2,3-b]pyridine-5-carbonitrile] | 14 nM
7 | Cc1c(Nc2c(C#N)cnc3sc(-c4cccc(C(=O)NCCN(C)C)c4)cc23)ccc2[nH]ccc12 [Compound 339, 3-{5-cyano-4-[(4-methyl-1H-indol-5-yl)amino]thieno[2,3-b]pyridin-2-yl}-N-[2-(dimethylamino)ethyl]benzamide] | 9 nM
8 | CC(=O)c1cccc(-c2cc3c(Nc4ccc5[nH]ccc5c4C)c(C#N)cnc3s2)c1 [Compound 340, 2-(3-acetylphenyl)-4-[(4-methyl-1H-indol-5-yl)amino]thieno[2,3-b]pyridine-5-carbonitrile] | 26 nM
9 | COC(=O)Nc1ccc(-c2cc3c(Nc4ccc5[nH]ccc5c4)c(C#N)cnc3s2)cc1 [Compound 342, methyl {4-[5-cyano-4-(1H-indol-5-ylamino)thieno[2,3-b]pyridin-2-yl]phenyl}carbamate] | 470 nM
10 | CNS(=O)(=O)c1cccc(-c2cc3c(Nc4ccc5[nH]ccc5c4C)c(C#N)cnc3s2)c1 [Compound 343, 3-{5-cyano-4-[(4-methyl-1H-indol-5-yl)amino]thieno[2,3-b]pyridin-2-yl}-N-methylbenzenesulfonamide] | 30 nM
11 | CON(C)C(=O)c1cccc(-c2cc3c(Nc4ccc5[nH]ccc5c4)c(C#N)cnc3s2)c1 [Compound 344, 3-[5-cyano-4-(1H-indol-5-ylamino)thieno[2,3-b]pyridin-2-yl]-N-methoxy-N-methylbenzamide] | 818 nM
12 | Cc1c(Nc2c(C#N)cnc3sc(-c4ccc(S(=O)(=O)NCCN(C)C)cc4)cc23)ccc2[nH]ccc12 [Compound 345, 4-{5-cyano-4-[(4-methyl-1H-indol-5-yl)amino]thieno[2,3-b]pyridin-2-yl}-N-[2-(dimethylamino)ethyl]benzenesulfonamide] | 31 nM
13 | Cc1c(Nc2c(C#N)cnc3sc(-c4ccc(S(=O)(=O)N(C)CCN(C)C)cc4)cc23)ccc2[nH]ccc12 [Compound 346, 4-{5-cyano-4-[(4-methyl-1H-indol-5-yl)amino]thieno[2,3-b]pyridin-2-yl}-N-[2-(dimethylamino)ethyl]-N-methylbenzenesulfonamide] | 48 nM
14 | Cc1c(Nc2c(C#N)cnc3sc(-c4cccc(C(C)N(C)C)c4)cc23)ccc2[nH]ccc12 (centres unmarked) [Compound 347, 2-{3-[1-(dimethylamino)ethyl]phenyl}-4-[(4-methyl-1H-indol-5-yl)amino]thieno[2,3-b]pyridine-5-carbonitrile] | 13 nM
